Measurements as given in article PMC3608202 (Biochemistry, 2013).

Biological target: Aβ(1–42) oligomers (Homo sapiens, UniProt P05067)
Experiment: Short time oligomer dissociation assay
Format: biochemical
Conditions: 2h; 50 µM, 25 µM and 12.5 µM

Sequence of Aβ(1–42) oligomers (P05067 672-713): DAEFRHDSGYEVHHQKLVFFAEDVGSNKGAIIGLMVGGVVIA

**Q.** How did the “Oligomer dissociation in short time assay” value turn out when `O=C(O)c1cc(O)ccc1O` [2,5-dihydroxybenzoic acid] was run?
**A.** does result in disassembly
